# According to patent US11203591B2, “Substituted 6-azabenzimidazole compounds” (Gilead Sciences, Inc., priority 2018, dated 2021):
# pIC50: −log10 of the molar value.
# Molecular target: human HPK1 (MAP4K1) (Homo sapiens (Human), UniProt Q92918)
# Experiment: HPK1 IC50 Assay (TR-FRET peptide phosphorylation)
# Format: biochemical
# Conditions: 0.15 nM HPK1, 10 μM ATP, 1 μM STK S1 peptide substrate; geometric mean
# Outline: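 Readout: TR-FRET (665 nm/620 nm) after EDTA stop, detecting STK S1 peptide (1 μM) phosphorylation by 0.15 nM HPK1 kinase domain, ATP-pre-activated, at 10 μM ATP over 3 h, 25° C, pH 7.0. IC50s from four-parameter variable-slope fits, normalized to staurosporine and DMSO, averaged geometrically.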
# human HPK1 (MAP4K1), sequence (Q92918 17-274): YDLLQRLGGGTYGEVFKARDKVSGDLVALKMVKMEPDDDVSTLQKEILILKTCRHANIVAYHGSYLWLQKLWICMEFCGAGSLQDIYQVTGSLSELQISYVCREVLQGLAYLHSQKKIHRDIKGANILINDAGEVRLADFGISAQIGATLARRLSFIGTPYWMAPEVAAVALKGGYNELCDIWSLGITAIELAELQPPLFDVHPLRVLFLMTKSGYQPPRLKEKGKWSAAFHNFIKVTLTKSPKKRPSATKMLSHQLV
row,pIC50,SMILES
1,9.70,"CC(C)n1cnc2cc(-c3cnc4c(c3)N([C@]3(C)C[C@H](N5CCCCC5)C3)C(=O)C4(C)C)nc(Nc3cc(C(=O)NC4(C(F)F)CC4)c(Cl)c(F)c3F)c21 [Example 297, 2-Chloro-N-(1-(difluoromethyl)cyclopropyl)-5-((6-(3,3-dimethyl-1-((1s,3s)-1-methyl-3-(piperidin-1-yl)cyclobutyl)-2-oxo-2,3-dihydro-1H-pyrrol[3,2-b]pyridin-6-yl)-3-isopropyl-3H-imidazo[4,5-c]pyridin-4-yl)amino)-3,4-difluorobenzamide]"
2,10.52,"Cc1c(C(=O)NCC(F)F)cc(Nc2nc(-c3ccc4c(c3)N([C@H]3C[C@@](C)(N5CCCCC5)C3)C(=O)C4(C)C)cc3ncn(C(C)C)c23)c(F)c1F [Example 268, N-(2,2-difluoroethyl)-5-((6-(3,3-dimethyl-1-((1s,3s)-3-methyl-3-(piperidin-1-yl)cyclobutyl)-2-oxoindolin-6-yl)-3-isopropyl-3H-imidazo[4,5-c]pyridin-4-yl)amino)-3,4-difluoro-2-methylbenzamide]"

# Same assay, conditions: recombinant HPK1 kinase domain 0.15 nM, 10 μM ATP, 1 μM STK S1 peptide; geometric mean of multiple experiments
row,pIC50,SMILES
1,9.52,"CC[C@]1(N2CCCCC2)C[C@@H](N2C(=O)C(C)(C)c3ncc(-c4cc5ncn(C(C)C)c5c(Nc5cc(C(=O)NC6(C(F)F)CC6)c(C)cc5F)n4)cc32)C1 [Example 213, N-(1-(Difluoromethyl)cyclopropyl)-5-((6-(1-((1r,3s)-3-ethyl-3-(piperidin-1-yl)cyclobutyl)-3,3-dimethyl-2-oxo-2,3-dihydro-1H-pyrrolo[3,2-b]pyridin-6-yl)-3-isopropyl-3H-imidazo[4,5-c]pyridin-4-yl)amino)-4-fluoro-2-methylbenzamide]"
2,10.00,"Cc1c(C(=O)NC2(C(F)F)CC2)cc(Nc2nc(-c3cnc4c(c3)N([C@H]3C[C@@](C)(N5CCC[C@@H](F)C5)C3)C(=O)C4(C)C)cc3ncn(C(C)C)c23)c(F)c1F [Example 196, N-(1-(Difluoromethyl)cyclopropyl)-3,4-difluoro-5-((6-(1-((1S,3s)-3-((R)-3-fluoropiperidin-1-yl)-3-methylcyclobutyl)-3,3-dimethyl-2-oxo-2,3-dihydro-1H-pyrrolo[3,2-b]pyridin-6-yl)-3-isopropyl-3H-imidazo[4,5-c]pyridin-4-yl)amino)-2-methylbenzamide]"
3,9.52,CNC(=O)c1cc(Nc2nc(-c3ccc4c(c3)N([C@H]3C[C@@H](N5CCCCC5)C3)C(=O)C43CCN(C(C)=O)CC3)cc3ncn(C4CC4)c23)c(F)cc1C [Example 95]
4,10.05,CNC(=O)c1cc(Nc2nc(-c3ccc4c(c3)N([C@H]3C[C@@H](N5CCCCC5)C3)C(=O)C4(C)C)cc3ncn(C(C)C)c23)c(F)cc1Cl [Example 118]
